Measurements from patent US9498455B2, “Cinacalcet and neuroblastic tumours” (HOSPITAL SAINT JOAN DE DEU, priority 2012, dated 2016).

Experiments:
[1] = tested on: SK-N-LP cells with overexpression of CASR; test: CASR activation by calcium after serum deprivation, SK-N-LP cells with overexpression of CASR; type: cell-based
Protocol: (§1) Wild type SK-N-LP cells stably transfected with pCMV-GFP or pCMV-CASR-GFP (1×10^6) in RPMI 10% FBS were seeded in P100 plates. The medium was substituted the next day with a serum-free medium (calcium-free DMEM supplemented with 0.2% bovine albumin, 4 mM L-glutamine and 0.5 mM CaCl2). This was maintained for 16 hours before substituting it with the same medium supplemented or not supplemented with up to 3 mM CaCl2. […] In the latter cell lines, indications of cell death were detected, but the cells continued to proliferate until reaching confluence, whereas cells with overexpression of CASR completely disappeared in 5 days.
In order to determine if the cell death process occurred by means of apoptosis, total proteins of wild type SK-N-LP cells (WT) and cells with overexpression of CASR (CASR) were extracted 24 and 48 hours after exposure to this model. The proteins were subjected to SDS-PAGE gel electrophoresis, transferred to a nitrocellulose membrane and incubated with specific antibodies to detect activated caspase 3 and c-PARP (Cell Signaling). Suitable secondary antibodies labeled with peroxidase were used, and it was developed with the Amersham ECL system.

wild type SK-N-LP cells = test: CASR activation by calcium after serum deprivation, wild type or pCMV-GFP SK-N-LP cells; type: cell-based; conditions: 3 mM CaCl2 after 16 hours serum deprivation; wild type or pCMV-GFP transfected
Protocol: as §1

[2] = tested on: Xenografts of LAN-1 cell line; test: In vivo model of neuroblastoma, LAN-1 xenografts, morphological examination; set-up: species or system athymic nu/nu mice; conditions: LAN-1 xenograft, oral 100 mg/kg 6 days a week from day 12, sacrificed after 40 days
Protocol: (§2) Xenografts of LAN-1 and SK-N-LP cell lines were generated for which aliquots containing 10×10^6 cells from said cell lines were inoculated subcutaneously in 4-6 week old female athymic nu/nu mice (Charles Rivers). Starting from day 12, when the forming tumor could already be measured using Vernier calipers, oral treatment was started 6 days a week with cinacalcet 100 mg/kg (FIGS. 3C-3F) and with the carrier as a negative control (FIGS. 3A and 3B). The tumor volume was measured every 2-3 days. The mice were sacrificed after 40 days. Each tumor was weighed before being sectioned into two halves: one half was frozen in liquid nitrogen for expression analysis and the other half was fixed and embedded in paraffin for morphological examination and immunohistochemical analyses.

SK-N-JD = test: Cell viability (MTS) after 72 hours, SK-N-JD neuroblastoma cell line; type: cell-based; conditions: no unit in table, tested concentrations given in μM, read-out: IC50 (drug concentration causing the death of 50% of the cells with respect to the control)
Protocol: (§3) 5×10^3 cells of each cell line (LAN-1, SK-N-BE(2)c, LA1-55n, LA1-5s, SK-N-LP, SK-N-JD, SK-N-AS) were seeded in 96-well plates (6 replicates per condition). The initial medium (RPMI 10% FBS) was removed the next day and substituted with the same medium containing several concentrations (100 μM, 65 μM, 30 μM, 25 μM, 20 μM, 15 μM, 10 μM, 5 μM, 3 μM, 1 μM, 0.3 μM) of cinacalcet (Selleck Biochemicals) or NPS R-568 (Tocris) or equivalent amounts of DMSO (Sigma-Aldrich). Cell viability was evaluated after 72 hours by means of quantifying the percentage of viable cells by means of the Promega CellTiter 96(r) Aqueous One Solution Cell Proliferation Assay (MTS) system. It was thus observed that both drugs induced a decrease in cell viability in the 7 cell lines examined (FIG. 2), and that in 5 of said cell lines the IC50 (drug concentration causing the death of 50% of the cells with respect to the control) of cinacalcet was less than that of NPS R-568 in a statistically significant manner (Table 1). In the case of SK-N-AS and LA1-55n cell lines, the difference in the effect promoted by both drugs was not statistically significant (Table 1).

LAN-1 = test: Cell viability (MTS) after 72 hours, LAN-1 neuroblastoma cell line; type: cell-based; conditions: LAN1, LAN-1, 72 hours, no unit in table, tested concentrations given in μM, read-out: IC50 (drug concentration causing the death of 50% of the cells with respect to the control)
Protocol: as §3

SK-N-AS = test: Cell viability (MTS) after 72 hours, SK-N-AS neuroblastoma cell line; type: cell-based; conditions: Homo sapiens, no unit in table, tested concentrations given in μM, read-out: IC50 (drug concentration causing the death of 50% of the cells with respect to the control)
Protocol: as §3

LA1-55n = test: Cell viability (MTS) after 72 hours, LA1-55n neuroblastoma cell line; type: cell-based; conditions: no unit in table, tested concentrations given in μM, read-out: IC50 (drug concentration causing the death of 50% of the cells with respect to the control)
Protocol: as §3

SK-N-LP = test: Cell viability (MTS) after 72 hours, SK-N-LP neuroblastoma cell line; type: cell-based; conditions: no unit in table, tested concentrations given in μM, read-out: IC50 (drug concentration causing the death of 50% of the cells with respect to the control)
Protocol: as §3

LA1-5s = test: Cell viability (MTS) after 72 hours, LA1-5s neuroblastoma cell line; type: cell-based; conditions: no unit in table, tested concentrations given in μM, read-out: IC50 (drug concentration causing the death of 50% of the cells with respect to the control)
Protocol: as §3

SK-N-BE(2)C = test: Cell viability (MTS) after 72 hours, SK-N-BE(2)c neuroblastoma cell line; type: cell-based; conditions: no unit in table, tested concentrations given in μM, read-out: IC50 (drug concentration causing the death of 50% of the cells with respect to the control)
Protocol: as §3

[3] = tested on: Xenografts of SK-N-LP cell line; test: In vivo model of neuroblastoma, SK-N-LP xenografts, morphological examination; set-up: species or system athymic nu/nu mice; conditions: SK-N-LP xenograft, oral 100 mg/kg 6 days a week from day 12, sacrificed after 40 days
Protocol: as §2

SMILES | Cell death (morphology) ([1]; 3 mM CaCl2 after 16 hours serum deprivation) | Caspase 3 activation and PARP cleavage (Western blot) ([1]; 24 and 48 hours after exposure to 3 mM CaCl2 model) | Cell death (morphology) (wild type SK-N-LP cells) | Morphological analysis of the xenografts: cell death [2] | Morphological analysis of the xenografts: differentiation [2] | IC50 (SK-N-JD) [µM] | IC50 (LAN-1) [µM] | IC50 (SK-N-AS) [µM] | IC50 (LA1-55n) [µM] | IC50 (SK-N-LP) [µM] | IC50 (LA1-5s) [µM] | IC50 (SK-N-BE(2)C) [µM] | Morphological analysis of the xenografts: cell death [3] | Morphological analysis of the xenografts: differentiation [3]
[Ca+2].[Cl-].[Cl-] [CaCl2] | suffered cell death | accompanied by caspase 3 activation and PARP cleavage | hardly appreciable |  |  |  |  |  |  |  |  |  |  | 
C[C@@H](NCCCc1cccc(C(F)(F)F)c1)c1cccc2ccccc12 [Cinacalcet, cinacalcet] |  |  |  | large areas with necrosis and/or apoptosis | morphological signs of differentiation in viable cells | 10.9 | 17.2 | 10.3 | 10.5 | 10.3 | 16.7 | 10.7 | large areas with necrosis and/or apoptosis | morphological signs of differentiation in viable cells
COc1cccc([C@@H](C)NCCCc2ccccc2Cl)c1 [NPS R-568] |  |  |  |  |  | 25.8 | 24.8 | 15.1 | 11.4 | 22.4 | 34.5 | 16.6 |  | 
